In patent US12662491B2 (Redona Therapeutics, Inc., priority 2020, dated 2026):

Target: T1, Zcchc11 enzyme (Homo sapiens, UniProt Q5TAX3)
T1 construct: made in house; host or cells: HEK293 cells (Zcchc11); E. coli Rosetta II (LIN28A)
T1 sequence (Q5TAX3 212-1420): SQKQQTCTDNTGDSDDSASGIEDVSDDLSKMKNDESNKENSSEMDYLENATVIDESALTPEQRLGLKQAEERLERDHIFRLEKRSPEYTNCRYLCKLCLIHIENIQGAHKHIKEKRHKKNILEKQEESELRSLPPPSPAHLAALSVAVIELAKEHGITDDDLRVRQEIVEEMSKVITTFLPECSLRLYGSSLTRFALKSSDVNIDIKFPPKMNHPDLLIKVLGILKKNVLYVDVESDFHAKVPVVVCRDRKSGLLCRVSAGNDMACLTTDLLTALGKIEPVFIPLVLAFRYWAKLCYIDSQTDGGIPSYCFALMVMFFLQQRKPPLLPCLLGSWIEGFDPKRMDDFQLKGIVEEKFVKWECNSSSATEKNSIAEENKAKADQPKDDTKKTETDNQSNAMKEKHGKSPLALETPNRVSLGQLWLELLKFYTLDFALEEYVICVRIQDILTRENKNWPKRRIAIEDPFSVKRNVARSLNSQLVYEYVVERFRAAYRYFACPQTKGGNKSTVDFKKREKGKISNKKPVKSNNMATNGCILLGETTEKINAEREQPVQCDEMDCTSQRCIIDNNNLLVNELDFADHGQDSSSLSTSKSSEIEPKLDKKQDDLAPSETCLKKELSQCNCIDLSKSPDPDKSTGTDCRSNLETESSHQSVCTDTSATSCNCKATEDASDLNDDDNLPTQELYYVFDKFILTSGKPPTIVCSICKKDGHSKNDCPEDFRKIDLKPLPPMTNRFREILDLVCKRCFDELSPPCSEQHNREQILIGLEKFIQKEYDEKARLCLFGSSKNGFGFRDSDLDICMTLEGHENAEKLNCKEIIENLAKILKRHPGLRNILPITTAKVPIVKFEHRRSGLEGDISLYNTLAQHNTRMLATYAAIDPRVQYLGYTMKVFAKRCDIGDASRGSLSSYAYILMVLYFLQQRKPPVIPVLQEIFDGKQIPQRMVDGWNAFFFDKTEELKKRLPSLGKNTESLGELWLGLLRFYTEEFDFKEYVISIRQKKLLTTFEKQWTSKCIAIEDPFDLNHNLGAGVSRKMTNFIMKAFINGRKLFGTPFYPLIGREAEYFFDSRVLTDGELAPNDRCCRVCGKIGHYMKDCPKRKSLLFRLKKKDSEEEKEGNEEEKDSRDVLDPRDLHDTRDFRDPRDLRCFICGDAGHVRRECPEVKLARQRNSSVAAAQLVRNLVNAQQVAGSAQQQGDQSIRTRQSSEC
Assay: TUTase assay (Zcchc11 assay, Lin28a-dependent polyuridylation of pre-let-7)
Type: biochemical
Conditions: Lin28a-dependent Zcchc11 (Z11) TUTase assay; read-out: Potency Lin28a-dep Z11 IC50
Outline: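 Potency is measured as inhibition of LIN28A-driven U-tail addition to 2 nM pre-let-7 by 0.2 nM HEK293-derived Zcchc11 fragment with 5 uM UTP at room temperature. Tail growth appears as fluorescein quenching by an annealing rhodamine-A20 probe.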

IC50	SMILES
≤ 1000 nM	O=C(O)c1cn(-c2ccnc(N3CCC3)c2)c2cc(N3CCC[C@@H]3COc3ccccn3)c(Cl)cc2c1=O [Example 553, (R)-1-(2-(azetidin-1-yl)pyridin-4-yl)-6-chloro-4-oxo-7-(2-((pyridin-2-yloxy)methyl)pyrrolidin-1-yl)-1,4-dihydroquinoline-3-carboxylic acid]
≤ 1000 nM	O=C(O)c1cn(-c2ccnc(N3CCC3)c2)c2cc(N3CCC[C@@H]3COc3ncccc3Cl)c(Cl)cc2c1=O [Example 554, (R)-1-(2-(azetidin-1-yl)pyridin-4-yl)-6-chloro-7-(2-(((3-chloropyridin-2-yl)oxy)methyl)pyrrolidin-1-yl)-4-oxo-1,4-dihydroquinoline-3-carboxylic acid]
≤ 1000 nM	Nc1ncc(-n2cc(C(=O)O)c(=O)c3cc(Cl)c(N4CCC[C@@H]4COc4ncccc4Cl)cc32)cn1 [Example 555, (R)-1-(2-aminopyrimidin-5-yl)-6-chloro-7-(2-(((3-chloropyridin-2-yl)oxy)methyl)pyrrolidin-1-yl)-4-oxo-1,4-dihydroquinoline-3-carboxylic acid]
1000 to 10000 nM	O=C(O)c1cn(Cc2ccccc2)c2cc(N3CCC[C@@H]3COc3ncccc3Cl)c(Cl)cc2c1=O [Example 556, (R)-1-benzyl-6-chloro-7-(2-(((3-chloropyridin-2-yl)oxy)methyl)pyrrolidin-1-yl)-4-oxo-1,4-dihydroquinoline-3-carboxylic acid]
≤ 1000 nM	O=C(O)c1cn(Cc2cccnc2)c2cc(N3CCC[C@@H]3COc3ncccc3Cl)c(Cl)cc2c1=O [Example 557, (R)-6-chloro-7-(2-(((3-chloropyridin-2-yl)oxy)methyl)pyrrolidin-1-yl)-4-oxo-1-(pyridin-3-ylmethyl)-1,4-dihydroquinoline-3-carboxylic acid]
≤ 1000 nM	COCCNc1ccc(-n2cc(C(=O)O)c(=O)c3cc(I)c(N4CCC[C@@H]4COc4ncccc4Cl)cc32)cn1 [Example 558, (R)-7-(2-(((3-chloropyridin-2-yl)oxy)methyl)pyrrolidin-1-yl)-6-iodo-1-(6-((2-methoxyethyl)amino)pyridin-3-yl)-4-oxo-1,4-dihydroquinoline-3-carboxylic acid]
≤ 1000 nM	CN(C)C1CN(c2ccc(-n3cc(C(=O)O)c(=O)c4cc(C5CC5)c(N5CCC[C@@H]5COc5ncccc5Cl)cc43)cn2)C1 [Example 559, (R)-7-(2-(((3-chloropyridin-2-yl)oxy)methyl)pyrrolidin-1-yl)-6-cyclopropyl-1-(6-(3-(dimethylamino)azetidin-1-yl)pyridin-3-yl)-4-oxo-1,4-dihydroquinoline-3-carboxylic acid]
≤ 1000 nM	O=C(O)c1cn(-c2ncc[nH]2)c2cc(N3CCC[C@@H]3COc3ncccc3Cl)c(Cl)cc2c1=O [Example 560, (R)-6-chloro-7-(2-(((3-chloropyridin-2-yl)oxy)methyl)pyrrolidin-1-yl)-1-(1H-imidazol-2-yl)-4-oxo-1,4-dihydroquinoline-3-carboxylic acid]
≤ 1000 nM	CN1CCn2nc(-n3cc(C(=O)O)c(=O)c4cc(C#N)c(N5CCC[C@@H]5COc5ncccc5Cl)cc43)cc2C1 [Example 561, (R)-7-(2-(((3-chloropyridin-2-yl)oxy)methyl)pyrrolidin-1-yl)-6-cyano-1-(5-methyl-4,5,6,7-tetrahydropyrazolo [1,5-a]pyrazin-2-yl)-4-oxo-1,4-dihydroquinoline-3-carboxylic acid]
≤ 1000 nM	CN(C)[C@H]1CCN(c2ccc(-n3cc(C(=O)O)c(=O)c4cc(C#N)c(N5CCC[C@@H]5COc5ncccc5Cl)cc43)cn2)C1 [Example 562, 7-((R)-2-(((3-chloropyridin-2-yl)oxy)methyl)pyrrolidin-1-yl)-6-cyano-1-(6-((S)-3-(dimethylamino)pyrrolidin-1-yl)pyridin-3-yl)-4-oxo-1,4-dihydroquinoline-3-carboxylic acid]
≤ 1000 nM	CN(C)[C@@H]1CCN(c2ccc(-n3cc(C(=O)O)c(=O)c4cc(C#N)c(N5CCC[C@@H]5COc5ncccc5Cl)cc43)cn2)C1 [Example 563, 7-((R)-2-(((3-chloropyridin-2-yl)oxy)methyl)pyrrolidin-1-yl)-6-cyano-1-(6-((R)-3-(dimethylamino)pyrrolidin-1-yl)pyridin-3-yl)-4-oxo-1,4-dihydroquinoline-3-carboxylic acid]
≤ 1000 nM	CN(C)C1CN(c2cc(-n3cc(C(=O)O)c(=O)c4cc(Cl)c(N5CCC[C@@H]5COc5ccccn5)cc43)ccn2)C1 [Example 564, (R)-6-chloro-1-(2-(3-(dimethylamino)azetidin-1-yl)pyridin-4-yl)-4-oxo-7-(2-((pyridin-2-yloxy)methyl)pyrrolidin-1-yl)-1,4-dihydroquinoline-3-carboxylic acid]
≤ 1000 nM	O=C(O)c1cn(-c2c[nH]cn2)c2cc(N3CCC[C@@H]3COc3ncccc3Cl)c(Cl)cc2c1=O [Example 565, (R)-6-chloro-7-(2-(((3-chloropyridin-2-yl)oxy)methyl)pyrrolidin-1-yl)-1-(1H-imidazol-4-yl)-4-oxo-1,4-dihydroquinoline-3-carboxylic acid]
≤ 1000 nM	Cn1cnc(-n2cc(C(=O)O)c(=O)c3cc(Cl)c(N4CCC[C@@H]4COc4ncccc4Cl)cc32)c1 [Example 566, (R)-6-chloro-7-(2-(((3-chloropyridin-2-yl)oxy)methyl)pyrrolidin-1-yl)-1-(1-methyl-1H-imidazol-4-yl)-4-oxo-1,4-dihydroquinoline-3-carboxylic acid]
≤ 1000 nM	Cn1cncc1-n1cc(C(=O)O)c(=O)c2cc(Cl)c(N3CCC[C@@H]3COc3ncccc3Cl)cc21 [Example 567, (R)-6-chloro-7-(2-(((3-chloropyridin-2-yl)oxy)methyl)pyrrolidin-1-yl)-1-(1-methyl-1H-imidazol-5-yl)-4-oxo-1,4-dihydroquinoline-3-carboxylic acid]
≤ 1000 nM	Cn1ccnc1-n1cc(C(=O)O)c(=O)c2cc(Cl)c(N3CCC[C@@H]3COc3ncccc3Cl)cc21 [Example 568, (R)-6-chloro-7-(2-(((3-chloropyridin-2-yl)oxy)methyl)pyrrolidin-1-yl)-1-(1-methyl-1H-imidazol-2-yl)-4-oxo-1,4-dihydroquinoline-3-carboxylic acid]
≤ 1000 nM	N#CCn1cc(C(=O)O)c(=O)c2cc(Cl)c(N3CCC[C@@H]3COc3ncccc3Cl)cc21 [Example 569, (R)-6-chloro-7-(2-(((3-chloropyridin-2-yl)oxy)methyl)pyrrolidin-1-yl)-1-(cyanomethyl)-4-oxo-1,4-dihydroquinoline-3-carboxylic acid]
≤ 1000 nM	CN(C)CCNc1ccc(-n2cc(C(=O)O)c(=O)c3cc(C#N)c(N4CCC[C@@H]4COc4ncccc4Cl)cc32)cn1 [Example 570, (R)-7-(2-(((3-chloropyridin-2-yl)oxy)methyl)pyrrolidin-1-yl)-6-cyano-1-(6-((2-(dimethylamino)ethyl)amino)pyridin-3-yl)-4-oxo-1,4-dihydroquinoline-3-carboxylic acid]
≤ 1000 nM	N#Cc1cc2c(=O)c(C(=O)O)cn(-c3cnn(CCN4CCC4)c3)c2cc1N1CCC[C@@H]1COc1ncccc1Cl [Example 571, (R)-1-(1-(2-(azetidin-1-yl)ethyl)-1H-pyrazol-4-yl)-7-(2-(((3-chloropyridin-2-yl)oxy)methyl)pyrrolidin-1-yl)-6-cyano-4-oxo-1,4-dihydroquinoline-3-carboxylic acid]
≤ 1000 nM	CN(C)C1CN(c2ccc(-n3cc(C(=O)O)c(=O)c4cc(C#N)c(N5C[C@@H](F)C[C@@H]5COc5ncccc5Cl)cc43)cn2)C1 [Example 572, 7-((2R,4S)-2-(((3-chloropyridin-2-yl)oxy)methyl)-4-fluoropyrrolidin-1-yl)-6-cyano-1-(6-(3-(dimethylamino)azetidin-1-yl)pyridin-3-yl)-4-oxo-1,4-dihydroquinoline-3-carboxylic acid]
≤ 1000 nM	Cn1cc(Cn2cc(C(=O)O)c(=O)c3cc(Cl)c(N4CCC[C@@H]4COc4ncccc4Cl)cc32)cn1 [Example 573, (R)-6-chloro-7-(2-(((3-chloropyridin-2-yl)oxy)methyl)pyrrolidin-1-yl)-1-((1-methyl-1H-pyrazol-4-yl)methyl)-4-oxo-1,4-dihydroquinoline-3-carboxylic acid]
